# How the values were obtained:
# Assay type in all cases: biochemical
# [1] = system: red click beetle luciferase; assay: Quenching phosphorescence from white luminometer plate, signal/background with red click beetle luciferase (Example IV); details: relative to phosphorescence S/B before dye
# Method: (§1) Stocks of Amaranth (Aldrich, 120561), Benzopurpurin 4B (Aldrich # 22882), and Fluorescence Brightener 28 (Aldrich 475300) were prepared in DMSO (Sigma) at 100 μM. Luminometer plates (96-well) were purchased from Dynex Technologies. The luminometer plates were broken into pieces that would fit into single luminometer tubes (12 mm diameter) purchased from Promega Corporation. All experiments were performed in a lab under normal fluorescent lighting.
# (§2) The experiment measured the signal/background ratio before and after the addition of colored compounds or DMSO. Luminescence measurements were taken from the empty luminescent tube in each experiment to quantitate background. A piece of white luminescent plate, 100 μl of Bright-Glo™ Reagent prepared according to the manufacturer's instructions (Promega Corporation), and 100 μl of Glo Lysis Buffer (Promega Corporation) were placed into the luminescent tube, and the luminescence was again measured. […] 2 μl of DMSO or one of the dyes in DMSO were then added to the tube, the sample was mixed, and the luminescence was measured a third time. This measurement captured the amount of luminescence emitted through the now-colored reagent or the reagent containing the DMSO carrier. Finally, 2 μl of luciferase was added to the tube, the sample was mixed, and the luminescence measured a final time. […]
# Renilla luciferase = molecular target: T1, Renilla luciferase (Renilla reniformis, UniProt P27652); assay: Selective quench of Renilla luciferase luminescent reaction (Example I); details: for Fold quench of Renilla luciferase: Luciferase Assay Reagent with 1% Tergitol NP-9, 200 μM coelenterazine hh methyl ether, 1 mM berberine hemisulfate or combinations, initial divided by residual luminescence
# T1 sequence (P27652 1-311): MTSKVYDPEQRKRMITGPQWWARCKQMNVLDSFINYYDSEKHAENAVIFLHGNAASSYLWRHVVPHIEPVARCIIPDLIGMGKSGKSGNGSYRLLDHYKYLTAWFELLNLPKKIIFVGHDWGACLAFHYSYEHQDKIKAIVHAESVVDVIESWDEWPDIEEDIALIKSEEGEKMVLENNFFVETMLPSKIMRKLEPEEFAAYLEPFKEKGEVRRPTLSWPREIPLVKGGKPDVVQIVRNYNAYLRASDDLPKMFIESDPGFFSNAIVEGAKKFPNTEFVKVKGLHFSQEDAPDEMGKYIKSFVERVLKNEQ
# Method: Each buffer was added to a vial of Luciferase Assay Substrate (pt. El 51, Promega Corporation) to make Luciferase Assay Reagent (LAR) plus the quenching agent(s). […] Luminescence was initiated by addition of 20 μl of enzyme solution to 100 μl of Renilla Luciferase Assay Reagent, and measured. […] Fold quench was calculated as the quotient of the initial Renilla luciferase luminescence divided by the residual Renilla luciferase luminescence.
# firefly luciferase [2] = assay: Quenching phosphorescence from white luminometer plate, signal/background with firefly luciferase (Example IV); details: relative to phosphorescence S/B before dye
# Method: as §1, §2
# firefly luciferase [3] = molecular target: firefly luciferase (Photinus pyralis, UniProt P08659); assay: Effect of quench reagents on firefly luciferase luminescent reaction (FIGS. 1-3); details: luminescence normalized to value without the reagent
# Method: To test the effect of coelenterazine hh methyl ether on a firefly luciferase luminescent reaction, a luciferase reagent was prepared (270 μM coenzyme A (Pharmacia), 530 μM ATP (Pharmacia), 20 mM Tricine pH 7.8 (Fisher), 1 mM magnesium carbonate (Sigma), 0.1 mM ETDA (Sigma), 2.7 mM magnesium sulfate (Sigma), and 33 mM dithiothreitol (Sigma)) with varying concentrations of beetle luciferin (Promega), both above and below the concentration required for luciferase saturation (940 μM, 470 μM, 235 μM and 117.5 μM, saturation occurs at about 470 μM). […] Luminescence from firefly luciferase was measured by adding 20 μl of firefly luciferase (5×10^−14 moles/reaction) (Promega Corp.) in 1× Cell Culture Lysis Reagent (Promega Corporation) containing 1 mg/ml bovine serum albumin (BSA) to 100 μl of the luciferase reagents. Luminescence was normalized to the value integrated in the absence of coelenterazine hh methyl ether.
# To test the effect of Tergitol® NP-9 on the firefly luciferase luminescent reaction, Luciferase Assay Reagent (Promega Corporation) was prepared according to the manufacturer's instructions. […] Luminescence was integrated after adding 20 μl of firefly luciferase (2.5×10^−14 moles/reaction) in 150 mM HEPES pH 7.4 and 1 mg/ml gelatin, to 100 μl of reagent. Luminescence was normalized to the value integrated for no detergent. […]
# [4] = system: horseradish peroxidase (HRP); assay: Quenching light from horseradish peroxidase/luminol chemiluminescent reaction (Example III, FIG. 4)
# Method: 20 μl of 0.044 mg/ml horseradish peroxidase (HRP), prepared in KPO4, pH 6.5, was added to 100 μl of 50 mM NaHCO3, 2 μM H2O2+/−100 μM berberine hemisulfate. […] 100 μl of 10 mM Luminol (Sigma) in 55 mM NaOH was then added to initiate the chemiluminescent reaction and the luminescence was measured on a luminometer. Luminescence was captured at various times after reaction initiation.
# Chain of firefly luciferase (Photinus pyralis, UniProt P08659) (P08659 whole entry): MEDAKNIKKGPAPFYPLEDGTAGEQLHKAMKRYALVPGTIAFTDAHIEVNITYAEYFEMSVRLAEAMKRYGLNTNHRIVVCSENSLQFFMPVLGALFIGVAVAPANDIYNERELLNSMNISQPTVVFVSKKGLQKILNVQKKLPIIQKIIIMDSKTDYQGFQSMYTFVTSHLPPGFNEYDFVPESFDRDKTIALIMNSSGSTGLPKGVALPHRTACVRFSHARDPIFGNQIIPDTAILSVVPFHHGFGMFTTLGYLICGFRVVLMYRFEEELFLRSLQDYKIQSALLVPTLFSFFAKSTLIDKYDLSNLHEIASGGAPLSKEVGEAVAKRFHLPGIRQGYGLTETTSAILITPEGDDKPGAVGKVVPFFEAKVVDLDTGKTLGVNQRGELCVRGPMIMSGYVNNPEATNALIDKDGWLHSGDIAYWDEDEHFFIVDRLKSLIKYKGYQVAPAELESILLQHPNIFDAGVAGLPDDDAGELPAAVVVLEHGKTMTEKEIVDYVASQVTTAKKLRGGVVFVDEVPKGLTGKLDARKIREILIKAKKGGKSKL
compound,measurement,setting,value
Cc1cc(-c2ccc(N=Nc3cc(S(=O)(=O)[O-])c4ccccc4c3N)c(C)c2)ccc1N=Nc1cc(S(=O)(=O)[O-])c2ccccc2c1N.[Na+].[Na+] [Benzopurpurin 4B],S/B Improvement,[1],4500%
OCCN(CCO)c1nc(N2CCCCC2)c2nc(N(CCO)CCO)nc(N3CCCCC3)c2n1 [dipyridamole],quench of the Renilla luciferase luminescent reaction,Renilla luciferase; at 1 mM,about 35 fold
Tergitol NP-9,Fold quench of Renilla luciferase,Renilla luciferase,86.67 fold
"O=S(=O)([O-])c1cc(Nc2nc(Nc3ccccc3)nc(N(CCO)CCO)n2)ccc1/C=C/c1ccc(Nc2nc(Nc3ccccc3)nc(N(CCO)CCO)n2)cc1S(=O)(=O)[O-].[Na+].[Na+] [Fluorescence Brightener, Fluorescence Brightener 28]",S/B Improvement,firefly luciferase [2],440%
"COc1c(Cc2ccccc2)nc2c(Cc3ccccc3)nc(-c3ccccc3)cn12 [coelenterazine hh methyl ether, 2,8-dibenzyl-3-methoxy-6-phenyl-imidazo[1,2-a]pyrazine]",effect on firefly luciferase luminescence,firefly luciferase [3],not affected
berberine hemisulfate,Fold quench of Renilla luciferase,Renilla luciferase,46 fold
same,effect on firefly luciferase luminescence,firefly luciferase [3],not affected
same,effect on horseradish peroxidase chemiluminescence (FIG. 4),[4],quenches
same,quench of horseradish peroxidase-dependent chemiluminescence,"[4]; 100 μM berberine hemisulfate, luminol",over 500 fold

# Source: patent US20040224377A1, “Compositions and methods to quench light from optical reactions” (priority 2003, published 2004)
